Experiments:
Format in all cases: cell-based, C. elegans
NPR-6 = assay: cAMP reporter gene assay, Gi/o (inhibition of forskolin-induced cAMP), NPR-6; settings: transiently transfected HEK293 cells, mean of at least three independent experiments; for cAMP, x-fold of forskolin (mean), NPR-6: 1 µM forskolin set to 1.00; for Gi (Gs) [x-fold of forskolin], NPR-6, mean: inhibition of cAMP production induced by 1 µM forskolin (set to 1.00)
Method: (§1) Activation of Gs and Gi/o was assessed with a cAMP reporter gene assay. HEK293 cells grown to 70–80% confluency in 6-well plates were transiently co-transfected with vectors encoding the receptor and the cAMP reporter gene plasmid pGL4.29 [luc2P/CRE/Hygro] (Promega; 4 μg total, 1:1 ratio) using Metafectene Pro (3 μl/μg DNA; Biontex) following the manufacturer’s instructions. 16 h post transfection, the cells were seeded into white 384-well plates at a density of 20,000 cells/well. On the next day, the medium was removed and the cells were stimulated with 20 μl of peptide solution (or forskolin as positive control) in serum-free DMEM for 4 h. For measuring Gi/o activity, the peptide solutions additionally contained 1 μM forskolin to elevate cellular cAMP levels. After incubation, the luciferase substrate OneGlo in lysis buffer (Promega) was added and the luminescence was measured in a microplate reader Tecan Spark (Tecan). Data were analyzed with GraphPad Prism 5.03 and are shown as fold of basal or fold of forskolin in case of Gαi/o activity.
(§2) For in vitro activation, data is presented as mean ± SEM of at least three independent experiments conducted in technical triplicate. […] For the C. elegans NPRs, we considered the strongest response elicited by any of the peptides downstream of a particular receptor as the receptor’s maximal signal. This may or may not be the biological maximum that can be reached by the ‘true’ endogenous agonist. For the human receptors, the response to the established endogenous agonist reflected the maximal signal.

NPR-5b = target: T1, NPR-5b (Caenorhabditis elegans, UniProt Q6F3C9); assay: cAMP reporter gene assay, Gi/o (with forskolin), NPR-5b; settings: transiently transfected HEK293 cells, mean of at least three independent experiments; for cAMP, x-fold of forskolin (mean), NPR-5b: 1 µM forskolin set to 1.00, values > 1 = cAMP stimulation; for Gi (Gs) [x-fold of forskolin], NPR-5b, mean: with 1 µM forskolin (set to 1.00), increase of cellular cAMP consistent with Gs coupling
T1 sequence (Q6F3C9 1-433): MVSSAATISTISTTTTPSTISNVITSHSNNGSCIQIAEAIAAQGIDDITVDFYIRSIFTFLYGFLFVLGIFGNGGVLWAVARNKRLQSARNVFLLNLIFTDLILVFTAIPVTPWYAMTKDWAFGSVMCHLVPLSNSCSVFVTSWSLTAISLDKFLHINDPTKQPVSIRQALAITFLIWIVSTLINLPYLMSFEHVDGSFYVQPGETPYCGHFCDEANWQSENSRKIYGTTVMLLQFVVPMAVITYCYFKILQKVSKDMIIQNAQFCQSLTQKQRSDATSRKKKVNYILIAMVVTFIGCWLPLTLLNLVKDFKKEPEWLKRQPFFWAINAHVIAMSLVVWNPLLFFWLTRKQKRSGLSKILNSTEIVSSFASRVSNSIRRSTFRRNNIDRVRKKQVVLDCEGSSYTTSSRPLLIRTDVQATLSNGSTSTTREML
Method: as §1, with “(Tecan).” for “(Tecan). Data were analyzed with GraphPad Prism 5.03 and are shown as fold of basal or fold of forskolin in case of Gαi/o activity.”
as §2

NPR-11 = target: T2, NPR-11 (Caenorhabditis elegans, UniProt Q18179); assay: cAMP reporter gene assay, Gi/o (inhibition of forskolin-induced cAMP), NPR-11; settings: transiently transfected HEK293 cells; for cAMP, x-fold of forskolin (mean), NPR-11: 1 µM forskolin set to 1.00; for cAMP, x-fold of forskolin (mean), NPR-11 / Gi (Gs) [x-fold of forskolin], NPR-11, mean: mean of at least three independent experiments; for Gi (Gs) [x-fold of forskolin], NPR-11, mean: inhibition of cAMP production induced by 1 µM forskolin (set to 1.00)
T2 construct: expressed in transfected cells; host or cells: HEK293, transient
T2 sequence (Q18179 1-402): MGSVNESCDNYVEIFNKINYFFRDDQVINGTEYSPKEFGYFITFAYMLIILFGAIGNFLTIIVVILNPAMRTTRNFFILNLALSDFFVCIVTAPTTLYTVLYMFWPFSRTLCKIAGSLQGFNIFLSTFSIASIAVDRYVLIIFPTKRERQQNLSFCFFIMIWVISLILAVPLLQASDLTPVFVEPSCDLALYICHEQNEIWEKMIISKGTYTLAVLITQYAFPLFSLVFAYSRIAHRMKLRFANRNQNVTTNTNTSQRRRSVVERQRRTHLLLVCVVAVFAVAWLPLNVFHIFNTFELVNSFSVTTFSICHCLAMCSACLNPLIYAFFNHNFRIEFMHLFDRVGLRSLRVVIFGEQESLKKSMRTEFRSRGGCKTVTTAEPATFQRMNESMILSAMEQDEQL
Method: as §1, §2

NPR-3 = target: T3, NPR-3 (Caenorhabditis elegans, UniProt P90745); assay: cAMP reporter gene assay, Gi/o (inhibition of forskolin-induced cAMP), NPR-3; settings: transiently transfected HEK293 cells, mean of at least three independent experiments; for cAMP, x-fold of forskolin (mean), NPR-3: 1 µM forskolin set to 1.00; for Gi (Gs) [x-fold of forskolin], NPR-3, mean: inhibition of cAMP production induced by 1 µM forskolin (set to 1.00)
T3 construct: expressed in transfected cells; host or cells: HEK293
T3 sequence (P90745 1-376): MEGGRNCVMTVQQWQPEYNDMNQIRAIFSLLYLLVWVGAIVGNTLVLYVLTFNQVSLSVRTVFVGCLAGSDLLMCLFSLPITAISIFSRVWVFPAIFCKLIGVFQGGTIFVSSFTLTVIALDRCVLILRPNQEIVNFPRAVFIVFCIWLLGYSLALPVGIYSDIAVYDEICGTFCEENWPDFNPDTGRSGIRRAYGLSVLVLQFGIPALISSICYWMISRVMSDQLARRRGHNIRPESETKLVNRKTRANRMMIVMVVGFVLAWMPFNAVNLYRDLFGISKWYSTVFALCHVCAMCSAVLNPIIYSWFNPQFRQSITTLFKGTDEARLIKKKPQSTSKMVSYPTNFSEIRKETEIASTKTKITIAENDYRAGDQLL
Method: as §1, §2

NPR-4b = target: T4, NPR-4b (Caenorhabditis elegans, UniProt A0A078BTK0); assay: cAMP reporter gene assay, Gi/o (inhibition of forskolin-induced cAMP), NPR-4b; settings: transiently transfected HEK293 cells, mean of at least three independent experiments; for cAMP, x-fold of forskolin (mean), NPR-4b: 1 µM forskolin set to 1.00; for Gi (Gs) [x-fold of forskolin], NPR-4b, mean: inhibition of cAMP production induced by 1 µM forskolin (set to 1.00)
T4 sequence (A0A078BTK0 1-376): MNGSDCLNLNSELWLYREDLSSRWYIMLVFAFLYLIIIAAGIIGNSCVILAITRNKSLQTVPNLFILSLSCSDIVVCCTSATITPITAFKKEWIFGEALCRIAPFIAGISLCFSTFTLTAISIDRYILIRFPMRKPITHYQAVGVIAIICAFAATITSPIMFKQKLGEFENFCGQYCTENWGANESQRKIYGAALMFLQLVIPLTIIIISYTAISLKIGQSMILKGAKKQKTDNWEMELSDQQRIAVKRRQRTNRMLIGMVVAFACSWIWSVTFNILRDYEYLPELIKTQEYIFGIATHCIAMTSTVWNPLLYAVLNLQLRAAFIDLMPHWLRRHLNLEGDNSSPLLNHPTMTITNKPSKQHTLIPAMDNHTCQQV
Method: as §1, with “(Tecan).” for “(Tecan). Data were analyzed with GraphPad Prism 5.03 and are shown as fold of basal or fold of forskolin in case of Gαi/o activity.”
as §2

cAMP, x-fold of forskolin (mean), NPR-5b (NPR-5b; 0.1 µM peptide)	cAMP, x-fold of forskolin (mean), NPR-5b (NPR-5b; 10 µM peptide)	cAMP, x-fold of forskolin (mean), NPR-11 (NPR-11; 0.1 µM peptide)	cAMP, x-fold of forskolin (mean), NPR-11 (NPR-11; 10 µM peptide)	cAMP, x-fold of forskolin (mean), NPR-3 (NPR-3; 0.1 µM peptide)	cAMP, x-fold of forskolin (mean), NPR-3 (NPR-3; 10 µM peptide)	cAMP, x-fold of forskolin (mean), NPR-4b (NPR-4b; 0.1 µM peptide)	cAMP, x-fold of forskolin (mean), NPR-4b (NPR-4b; 10 µM peptide)	Gi (Gs) [x-fold of forskolin], NPR-5b, mean (NPR-5b; 0.1 µM peptide)	Gi (Gs) [x-fold of forskolin], NPR-5b, mean (NPR-5b; 10 µM peptide)	Gi (Gs) [x-fold of forskolin], NPR-11, mean (NPR-11; 0.1 µM peptide)	Gi (Gs) [x-fold of forskolin], NPR-11, mean (NPR-11; 10 µM peptide)	Gi (Gs) [x-fold of forskolin], NPR-3, mean (NPR-3; 0.1 µM peptide)	Gi (Gs) [x-fold of forskolin], NPR-3, mean (NPR-3; 10 µM peptide)	Gi (Gs) [x-fold of forskolin], NPR-4b, mean (NPR-4b; 0.1 µM peptide)	Gi (Gs) [x-fold of forskolin], NPR-4b, mean (NPR-4b; 10 µM peptide)	Substance	cAMP, x-fold of forskolin (mean), NPR-6 (NPR-6; 0.1 µM peptide)	cAMP, x-fold of forskolin (mean), NPR-6 (NPR-6; 10 µM peptide)	Gi (Gs) [x-fold of forskolin], NPR-6, mean (NPR-6; 0.1 µM peptide)	Gi (Gs) [x-fold of forskolin], NPR-6, mean (NPR-6; 10 µM peptide)	other results
–	–	–	–	–	–	–	–	0.98 x-fold of forskolin	0.93 x-fold of forskolin	0.93 x-fold of forskolin	0.53 x-fold of forskolin	0.97 x-fold of forskolin	0.88 x-fold of forskolin	0.93 x-fold of forskolin	0.97 x-fold of forskolin	RGPSGPLAF-NH2 [[R8A]FLP-15-2]	–	–	0.92 x-fold of forskolin	0.99 x-fold of forskolin	–
–	–	–	–	–	–	–	–	1.06 x-fold of forskolin	0.97 x-fold of forskolin	0.87 x-fold of forskolin	0.67 x-fold of forskolin	1.20 x-fold of forskolin	1.38 x-fold of forskolin	0.95 x-fold of forskolin	0.99 x-fold of forskolin	GLGPRPLAF-NH2 [[R8A]FLP-21, R8A control peptide of FLP-21, penultimate arginine exchanged for an alanine]	–	–	1.00 x-fold of forskolin	0.86 x-fold of forskolin	–

More lines, now with the values behind:

Substance	cAMP, x-fold of forskolin (mean), NPR-5b (NPR-5b; 0.1 µM peptide)	cAMP, x-fold of forskolin (mean), NPR-5b (NPR-5b; 10 µM peptide)	cAMP, x-fold of forskolin (mean), NPR-11 (NPR-11; 0.1 µM peptide)	cAMP, x-fold of forskolin (mean), NPR-11 (NPR-11; 10 µM peptide)	cAMP, x-fold of forskolin (mean), NPR-3 (NPR-3; 0.1 µM peptide)	cAMP, x-fold of forskolin (mean), NPR-3 (NPR-3; 10 µM peptide)	cAMP, x-fold of forskolin (mean), NPR-4b (NPR-4b; 0.1 µM peptide)	cAMP, x-fold of forskolin (mean), NPR-4b (NPR-4b; 10 µM peptide)	Gi (Gs) [x-fold of forskolin], NPR-5b, mean (NPR-5b; 0.1 µM peptide)	Gi (Gs) [x-fold of forskolin], NPR-5b, mean (NPR-5b; 10 µM peptide)	Gi (Gs) [x-fold of forskolin], NPR-11, mean (NPR-11; 0.1 µM peptide)	Gi (Gs) [x-fold of forskolin], NPR-11, mean (NPR-11; 10 µM peptide)	Gi (Gs) [x-fold of forskolin], NPR-3, mean (NPR-3; 0.1 µM peptide)	Gi (Gs) [x-fold of forskolin], NPR-3, mean (NPR-3; 10 µM peptide)	Gi (Gs) [x-fold of forskolin], NPR-4b, mean (NPR-4b; 0.1 µM peptide)	Gi (Gs) [x-fold of forskolin], NPR-4b, mean (NPR-4b; 10 µM peptide)	cAMP, x-fold of forskolin (mean), NPR-6 (NPR-6; 0.1 µM peptide)	cAMP, x-fold of forskolin (mean), NPR-6 (NPR-6; 10 µM peptide)	Gi (Gs) [x-fold of forskolin], NPR-6, mean (NPR-6; 0.1 µM peptide)	Gi (Gs) [x-fold of forskolin], NPR-6, mean (NPR-6; 10 µM peptide)	other results
PrRP31 [reference compound]	0.91 x-fold of forskolin	1.10 x-fold of forskolin	1.06 x-fold of forskolin	0.74 x-fold of forskolin	1.10 x-fold of forskolin	1.29 x-fold of forskolin	1.05 x-fold of forskolin	0.64 x-fold of forskolin	–	–	–	–	–	–	–	–	0.96 x-fold of forskolin	1.25 x-fold of forskolin	–	–	–
APLEGFEDMSGFLRTIDGIQKPRF-NH2 [FLP-33, NPY-like C. elegans FLP with C-terminal RxRF/Ya signature]	0.79 x-fold of forskolin	0.85 x-fold of forskolin	0.77 x-fold of forskolin	0.21 x-fold of forskolin	0.77 x-fold of forskolin	0.85 x-fold of forskolin	0.85 x-fold of forskolin	0.79 x-fold of forskolin	–	–	–	–	–	–	–	–	0.86 x-fold of forskolin	0.91 x-fold of forskolin	–	–	Emax ± SEM [%] (NPR-11; NPR-11, forskolin (1 µM) set to 1.00, lower values correspond to high Gi/o activity, mean ± SEM of at least three independent experiments, SEM): -0.57 ± 0.06%
ASPSFIRF-NH2 [FLP-4-2, C. elegans FMRFamide-like peptide, C-terminally amidated, synthesized by SPPS]	0.90 x-fold of forskolin	1.82 x-fold of forskolin	0.89 x-fold of forskolin	0.83 x-fold of forskolin	0.94 x-fold of forskolin	0.83 x-fold of forskolin	0.52 x-fold of forskolin	0.19 x-fold of forskolin	–	–	–	–	–	–	–	–	0.86 x-fold of forskolin	0.72 x-fold of forskolin	–	–	–
